Source: publication PMC3989197, “A Novel Carbonyl Reductase with Anti-Prelog Stereospecificity from Acetobacter sp. CCTCC M209061: Purification and Characterization” (PLoS ONE, 2014)

Columns and labels:
[1] = biological target: carbonyl reductase from Acetobacter sp. CCTCC M209061 (AcCR) (Acetobacter sp. CCTCC M209061); experiment: SEC; gel permeation on Superdex G-200, 50 mM phosphate buffer pH 7.0 with 0.15 M NaCl, 0.2 ml/min, calibrated with mass markers; apparent native mass (104 kDa) compared with the subunit mass by SDS-PAGE (27 kDa)
[2] = test system: T1, AcCR (carbonyl reductase); experiment: spectrophotometric initial rate at […] nm; assay type: biochemical, Acetobacter sp. CCTCC M209061
T1 construct: native purification from Acetobacter cells (ammonium sulfate, DEAE-Sepharose, Native-PAGE); homotetramer 104 kDa, subunit 27 kDa

[3] = test system: T1, AcCR (carbonyl reductase); experiment: spectrophotometric initial rate at […] nm; Hill fit; assay type: biochemical, Acetobacter sp. CCTCC M209061; settings: NADH-linked reduction (NADH fixed 1 mM), pH 5.0, 25°C; sigmoidal, cooperative
[4] = oxidation of isopropanol (fixed 110 mM), pH 8.0, 35°C

Compound: carbonyl reductase from Acetobacter sp. CCTCC M209061 (AcCR) (enzyme)
- stoichiometry N [1]: 4

Compound: NC(=O)c1ccc[n+]([C@@H]2O[C@H](COP(=O)(O)OP(=O)(O)OC[C@H]3O[C@@H](n4cnc5c(N)ncnc54)[C@H](O)[C@@H]3O)[C@@H](O)[C@H]2O)c1 [NAD^+]
- Km [2, 4]: 1330 ± 45 µM

Compound: NC(=O)C1=CN([C@@H]2O[C@H](COP(=O)(O)OP(=O)(O)OC[C@H]3O[C@@H](n4cnc5c(N)ncnc54)[C@H](OP(=O)(O)O)[C@@H]3O)[C@@H](O)[C@H]2O)C=CC1 [NADPH]
- Km ([2]; reduction of 4′-chloroacetophenone (fixed 5 mM), pH 7.5, 25°C): 26 ± 1 µM

Compound: NC(=O)c1ccc[n+]([C@@H]2O[C@H](COP(=O)(O)OP(=O)(O)OC[C@H]3O[C@@H](n4cnc5c(N)ncnc54)[C@H](OP(=O)(O)O)[C@@H]3O)[C@@H](O)[C@H]2O)c1 [NADP^+]
- Km [2, 4]: 1120 ± 35 µM

Compound: CC(C)O [isopropanol]
- Km ([2]; NAD+-linked oxidation (NAD+ fixed 5 mM), pH 8.0, 35°C): 48300 ± 986 µM

Compound: CC(=O)c1ccc(Cl)cc1 [4′-chloroacetophenone]
- Km ([2]; NADPH-linked reduction (NADPH fixed 0.1 mM), pH 7.5, 25°C): 2960 ± 87 µM
- Km [3]: 4130 ± 157 µM

Compound: NC(=O)C1=CN([C@@H]2O[C@H](COP(=O)(O)OP(=O)(O)OC[C@H]3O[C@@H](n4cnc5c(N)ncnc54)[C@H](O)[C@@H]3O)[C@@H](O)[C@H]2O)C=CC1 [NADH]
- Km ([2]; reduction of 4′-chloroacetophenone (fixed 5 mM), pH 5.0, 25°C): 660 ± 21 µM
